Converted amounts (≈) assume the structure as drawn.
Experiments:
[1] = system: K562/ADR (K562adr, drug-resistant chronic myeloid leukemia) cells; experiment: MTT cell growth inhibition, leukemia cells; type: cell-based; details: Homo sapiens, K562/ADR, 72 h, MTT; for IC50: read-out: IC50; for IC90: read-out: IC90
Outline: (§1)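 Cells (6000 per well) were seeded in RPMI-1640 with 10% fetal bovine serum, treated with the compounds at different concentrations the next day, and incubated 72 hours at 37° C. under 5% CO2. Viable cell concentration was then determined by the MTT method.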

[2] = system: NB4 (acute promyelocytic leukemia) cells; experiment: MTT cell growth inhibition, leukemia cells; type: cell-based; details: Homo sapiens, NB4, 72 h, MTT; for IC50: read-out: IC50; for IC90: read-out: IC90
Outline: as §1

[3] = system: H9 (acute lymphoblastic leukemia) cells; experiment: MTT cell growth inhibition, leukemia cells; type: cell-based, human; details: Homo sapiens, H9, 72 h, MTT; for IC50: read-out: IC50; for IC90: read-out: IC90
Outline: as §1

[4] = system: Jurkat (acute lymphoblastic leukemia) cells; experiment: MTT cell growth inhibition, leukemia cells; type: cell-based, human; details: Homo sapiens, Jurkat, 72 h, MTT; for IC50: read-out: IC50; for IC90: read-out: IC90
Outline: as §1

[5] = system: Kasumi-1 (acute myeloid leukemia M2 type) cells; experiment: MTT cell growth inhibition, leukemia cells; type: cell-based, human; details: for IC50 / IC90: Homo sapiens, Kasumi-1, 72 h, MTT; for IC50: read-out: IC50; for IC90: read-out: IC90
Outline: as §1

[6] = system: RPMI 8226 (multiple myeloma) cells; experiment: MTT cell growth inhibition, multiple myeloma cells; type: cell-based, human; details: Homo sapiens, RPMI 8226, 72 h, MTT; for IC50: read-out: IC50; for IC90: read-out: IC90
Outline: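 RPMI 8226 myeloma cells, 6000 per well in RPMI-1640 with 10% FBS, were dosed with fangchinoline derivatives at several concentrations the day after seeding. Incubation ran 72 h at 37° C in 5% CO2, then viable cells were measured by MTT.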

[7] = system: CNE (nasopharyngeal carcinoma) cells; experiment: MTT cell growth inhibition, solid tumor cells; type: cell-based, human; details: for IC50 / IC90: Homo sapiens, CNE, 72 h, MTT; for IC50: read-out: IC50; for IC90: read-out: IC90
Outline: (§2)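 6000 cells/well were seeded in DMEM high glucose with 10% FBS and grown for 24 h at 37 °C, 5% CO2. Test compounds were then added across a concentration range and incubation continued for 72 h before viable cells were measured by MTT.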

[8] = system: CaEs-17 (esophageal cancer) cells; experiment: MTT cell growth inhibition, solid tumor cells; type: cell-based, human; details: for IC50 / IC90: Homo sapiens, CaEs17, CaEs-17, 72 h, MTT; for IC50: read-out: IC50; for IC90: read-out: IC90
Outline: as §2

[9] = system: PANC-1 (pancreatic cancer) cells; experiment: MTT cell growth inhibition, solid tumor cells; type: cell-based, human; details: for IC50 / IC90: Homo sapiens, PANC-1, 72 h, MTT; for IC50: read-out: IC50; for IC90: read-out: IC90
Outline: as §2

[10] = system: PC-3 (prostate cancer) cells; experiment: MTT cell growth inhibition, solid tumor cells; type: cell-based, human; details: for IC50 / IC90: Homo sapiens, PC-3, 72 h, MTT; for IC50: read-out: IC50; for IC90: read-out: IC90
Outline: as §2

[11] = system: SK-OV-3 (ovarian cancer) cells; experiment: MTT cell growth inhibition, solid tumor cells; type: cell-based, human; details: for IC50 / IC90: Homo sapiens, SK-OV-3, 72 h, MTT; for IC50: read-out: IC50; for IC90: read-out: IC90
Outline: as §2

[12] = system: Becap-37 (human breast cancer) cells; experiment: MTT cell growth inhibition, solid tumor cells; type: cell-based; details: for IC50 / IC90: Homo sapiens, Becap-37, 72 h, MTT; for IC50: read-out: IC50; for IC90: read-out: IC90
Outline: as §2

[13] = system: Hela (human cervical cancer) cells; experiment: MTT cell growth inhibition, solid tumor cells; type: cell-based; details: for IC50 / IC90: Homo sapiens, Hela, 72 h, MTT; for IC50: read-out: IC50; for IC90: read-out: IC90
Outline: as §2

[14] = system: Hep G2 (human liver cancer) cells; experiment: MTT cell growth inhibition, solid tumor cells; type: cell-based; details: for IC50 / IC90: Homo sapiens, HepG2, Hep G2, 72 h, MTT; for IC50: read-out: IC50; for IC90: read-out: IC90
Outline: as §2

[15] = system: MG-63 (osteosarcoma) cells; experiment: MTT cell growth inhibition, solid tumor cells; type: cell-based; details: Homo sapiens, MG-63, 72 h, MTT; for IC50: read-out: IC50; for IC90: read-out: IC90
Outline: as §2

[16] = system: RKO (human colon adenocarcinoma) cells; experiment: MTT cell growth inhibition, solid tumor cells; type: cell-based; details: for IC50 / IC90: Homo sapiens, RKO, 72 h, MTT; for IC50: read-out: IC50; for IC90: read-out: IC90
Outline: as §2

[17] = system: U87-MG (malignant glioma) cells; experiment: MTT cell growth inhibition, solid tumor cells; type: cell-based; details: Homo sapiens, U-87 MG, U87-MG, 72 h, MTT; for IC50: read-out: IC50; for IC90: read-out: IC90
Outline: as §2

tumor = experiment: Antitumor activity compared with fangchinoline, overall statement; type: cell-based; details: tumor type not specified
[18] = relative to fangchinoline, Table 2

COc1cc(OC)cc(C(=O)Oc2c(OC)cc3c4c2Oc2cc5c(cc2OC)CCN(C)[C@H]5Cc2ccc(cc2)Oc2cc(ccc2OC)C[C@@H]4N(C)CC3)c1 [BS-FC-311]
IC50 [1]: 0.48 µg/mL (≈ 0.621 µM)
IC90 [1]: 2.83 µg/mL (≈ 3.66 µM)
IC50 [2]: 0.22 µg/mL (≈ 0.285 µM)
IC90 [2]: 0.96 µg/mL (≈ 1.24 µM)
IC50 [3]: 1.2 µg/mL (≈ 1.55 µM)
IC90 [3]: 2 µg/mL (≈ 2.59 µM)
IC50 [4]: 0.51 µg/mL (≈ 0.66 µM)
IC90 [4]: 0.98 µg/mL (≈ 1.27 µM)
IC50 [5]: 0.57 µg/mL (≈ 0.737 µM)
IC90 [5]: 1.85 µg/mL (≈ 2.39 µM)
anti-Kasumi-1 activity increase over fangchinoline ([5]; relative to fangchinoline, Table 1): ~2 fold
IC50 [6]: 0.13 µg/mL (≈ 0.168 µM)
IC90 [6]: 0.49 µg/mL (≈ 0.634 µM)
IC50 [7]: 1.83 µg/mL (≈ 2.37 µM)
IC90 [7]: 5.04 µg/mL (≈ 6.52 µM)
IC50 [8]: 1.95 µg/mL (≈ 2.52 µM)
IC90 [8]: 7.37 µg/mL (≈ 9.54 µM)
IC50 [9]: 2.95 µg/mL (≈ 3.82 µM)
IC90 [9]: 4.8 µg/mL (≈ 6.21 µM)
IC50 [10]: 3.08 µg/mL (≈ 3.99 µM)
IC90 [10]: 8.39 µg/mL (≈ 10.9 µM)
IC50 [11]: 2.87 µg/mL (≈ 3.71 µM)
IC90 [11]: 3.96 µg/mL (≈ 5.12 µM)
IC50 [12]: 1.53 µg/mL (≈ 1.98 µM)
IC90 [12]: 3.03 µg/mL (≈ 3.92 µM)
IC50 [13]: 0.5 µg/mL (≈ 0.647 µM)
IC90 [13]: 2.89 µg/mL (≈ 3.74 µM)
anti-Hela activity increase over fangchinoline [13, 18]: ~4 fold
IC50 [14]: 1.4 µg/mL (≈ 1.81 µM)
IC90 [14]: 2.76 µg/mL (≈ 3.57 µM)
IC50 [15]: 2 µg/mL (≈ 2.59 µM)
IC90 [15]: 4.37 µg/mL (≈ 5.65 µM)
IC50 [16]: 1.32 µg/mL (≈ 1.71 µM)
IC90 [16]: 3.24 µg/mL (≈ 4.19 µM)
IC50 [17]: 1.25 µg/mL (≈ 1.62 µM)
IC90 [17]: 3.8 µg/mL (≈ 4.92 µM)
antitumor activity compared with that of fangchinoline (tumor): significantly superior

COc1ccc2cc1Oc1ccc(cc1)C[C@H]1c3cc(c(OC)cc3CCN1C)Oc1c(OC(=O)c3c(F)cccc3Cl)c(OC)cc3c1[C@H](C2)N(C)CC3 [BS-FC-315]
IC50 [1]: 0.26 µg/mL (≈ 0.34 µM)
IC90 [1]: 2.14 µg/mL (≈ 2.8 µM)
IC50 [2]: 0.33 µg/mL (≈ 0.431 µM)
IC90 [2]: 1.32 µg/mL (≈ 1.72 µM)
IC50 [3]: 2 µg/mL (≈ 2.61 µM)
IC90 [3]: 3.77 µg/mL (≈ 4.93 µM)
IC50 [4]: 0.59 µg/mL (≈ 0.771 µM)
IC90 [4]: 1.24 µg/mL (≈ 1.62 µM)
IC50 [5]: 0.85 µg/mL (≈ 1.11 µM)
IC90 [5]: 3.04 µg/mL (≈ 3.97 µM)
IC50 [6]: 0.13 µg/mL (≈ 0.17 µM)
IC90 [6]: 0.48 µg/mL (≈ 0.627 µM)
IC50 [7]: 3.3 µg/mL (≈ 4.31 µM)
IC90 [7]: 6.6 µg/mL (≈ 8.62 µM)
IC50 [8]: 1.84 µg/mL (≈ 2.4 µM)
IC90 [8]: 3.86 µg/mL (≈ 5.04 µM)
IC50 [9]: 1.61 µg/mL (≈ 2.1 µM)
IC90 [9]: 5.52 µg/mL (≈ 7.21 µM)
IC50 [10]: 2.95 µg/mL (≈ 3.85 µM)
IC90 [10]: 5.02 µg/mL (≈ 6.56 µM)
IC50 [11]: 2.99 µg/mL (≈ 3.91 µM)
IC90 [11]: 6.81 µg/mL (≈ 8.9 µM)
IC50 [12]: 2.1 µg/mL (≈ 2.74 µM)
IC90 [12]: 3.79 µg/mL (≈ 4.95 µM)
IC50 [13]: 1.5 µg/mL (≈ 1.96 µM)
IC90 [13]: 3.35 µg/mL (≈ 4.38 µM)
IC50 [14]: 1.39 µg/mL (≈ 1.82 µM)
IC90 [14]: 3.74 µg/mL (≈ 4.89 µM)
IC50 [15]: 2.4 µg/mL (≈ 3.14 µM)
IC90 [15]: 3.9 µg/mL (≈ 5.1 µM)
IC50 [16]: 1.15 µg/mL (≈ 1.5 µM)
IC90 [16]: 2.23 µg/mL (≈ 2.91 µM)
IC50 [17]: 1.34 µg/mL (≈ 1.75 µM)
IC90 [17]: 3.24 µg/mL (≈ 4.23 µM)
antitumor activity compared with that of fangchinoline (tumor): significantly superior

COc1ccc2cc1Oc1ccc(cc1)C[C@H]1c3cc(c(OC)cc3CCN1C)Oc1c(OCC(O)CN3CCCCC3)c(OC)cc3c1[C@H](C2)N(C)CC3 (stereo partly shown) [BS-FC-403]
IC50 [1]: 0.05 µg/mL (≈ 0.0667 µM)
IC90 [1]: 0.83 µg/mL (≈ 1.11 µM)
IC50 [2]: 0.3 µg/mL (≈ 0.4 µM)
IC90 [2]: 0.78 µg/mL (≈ 1.04 µM)
IC50 [3]: 0.88 µg/mL (≈ 1.17 µM)
IC90 [3]: 1.9 µg/mL (≈ 2.53 µM)
IC50 [4]: 0.58 µg/mL (≈ 0.773 µM)
IC90 [4]: 0.96 µg/mL (≈ 1.28 µM)
IC50 [5]: 0.88 µg/mL (≈ 1.17 µM)
IC90 [5]: 2 µg/mL (≈ 2.67 µM)
IC50 [6]: < 0.125 µg/mL
IC90 [6]: 0.13 µg/mL (≈ 0.173 µM)
IC50 [7]: 0.87 µg/mL (≈ 1.16 µM)
IC90 [7]: 2.2 µg/mL (≈ 2.93 µM)
anti-CNE activity increase over fangchinoline [7, 18]: ~3 fold
IC50 [8]: 0.43 µg/mL (≈ 0.573 µM)
IC90 [8]: 1.99 µg/mL (≈ 2.65 µM)
anti-CaEs-17 activity increase over fangchinoline [8, 18]: ~4 fold
IC50 [9]: 1.03 µg/mL (≈ 1.37 µM)
IC90 [9]: 3.17 µg/mL (≈ 4.23 µM)
anti-PANC-1 activity increase over fangchinoline [9, 18]: ~3 fold
IC50 [10]: 1.49 µg/mL (≈ 1.99 µM)
IC90 [10]: 3.96 µg/mL (≈ 5.28 µM)
anti-PC-3 activity increase over fangchinoline [10, 18]: ~3 fold
IC50 [11]: 1.03 µg/mL (≈ 1.37 µM)
IC90 [11]: 3.85 µg/mL (≈ 5.13 µM)
anti-SK-OV-3 activity increase over fangchinoline [11, 18]: ~3 fold
IC50 [12]: 0.59 µg/mL (≈ 0.787 µM)
IC90 [12]: 2.09 µg/mL (≈ 2.79 µM)
anti-Becap37 activity increase over fangchinoline [12, 18]: ~3 fold
IC50 [13]: 0.9 µg/mL (≈ 1.2 µM)
IC90 [13]: 2.96 µg/mL (≈ 3.95 µM)
IC50 [14]: 0.55 µg/mL (≈ 0.733 µM)
IC90 [14]: 2.23 µg/mL (≈ 2.97 µM)
anti-Hep G2 activity increase over fangchinoline [14, 18]: ~3 fold
IC50 [15]: 0.6 µg/mL (≈ 0.8 µM)
IC90 [15]: 1.3 µg/mL (≈ 1.73 µM)
IC50 [16]: 0.34 µg/mL (≈ 0.453 µM)
IC90 [16]: 0.79 µg/mL (≈ 1.05 µM)
anti-RKO activity increase over fangchinoline [16, 18]: ~3 fold
IC50 [17]: 0.71 µg/mL (≈ 0.947 µM)
IC90 [17]: 1.73 µg/mL (≈ 2.31 µM)
antitumor activity compared with that of fangchinoline (tumor): significantly superior
